# Assay results taken from US20150231147A1, “METHODS FOR ACUTE AND LONG-TERM TREATMENT OF DRUG ADDICTION” (DemeRx, Inc., priority 2014, published 2015).
# Entries after “also recorded” stand apart in the source; their conditions may differ. Where two headings read alike, the source gives them in different places.
# Experiments:
# Format in all cases: in vivo, human
# [1] = tested on: opioid-dependent participants; assay: Time to resumption of morphine (opioid substitution treatment, OST)
# Description: (§1) The efficacy of noribogaine in humans was evaluated in opioid-dependent participants in a randomized, placebo-controlled, double-blind trial. […] See U.S. application Ser. No. 14/214,157, filed Mar. 14, 2014 and Ser. No. 14/346,655, filed Mar. 21, 2014, which are incorporated herein by reference in their entireties.
# (§2) Three cohorts of nine (9) subjects (6 administered noribogaine and 3 administered placebo in each cohort) were evaluated for tolerability, pharmacokinetics, and efficacy. Cohort 1 received a single dose of 60 mg noribogaine or placebo. Cohort 2 received a single dose of 120 mg noribogaine or placebo. Cohort 3 received a single dose of 180 mg noribogaine or placebo.
# [2] = tested on: healthy, drug-free male volunteers; assay: Cold pressor test (analgesic effect)
# Description: Analgesic effect was assessed based on duration of hand immersion in ice water and on visual analog scale (VAS) pain scores upon hand removal from the water bath.
# (§3) Safety and tolerability of noribogaine were tested in the group of volunteers from Example 1. […] Safety evaluations included clinical monitoring, recording of adverse events (AEs), safety laboratory tests, vital signs, ECG telemetry from −2 h to 6 h after dosing, and 12-lead electrocardiograms (ECGs) up to 216 hours post-dosing.
# [3] = Serum noribogaine pharmacokinetics in patients, Phase IB study; settings: for Vd/F / AUC(0-t) / Cmax / Tmax / AUC / half-life: human, serum, opioid-dependent patients, mean ± SD; for Vd/F: unit inferred; for AUC: read-out: AUC(0-¥)
# Description: as §1, §2
# [4] = tested on: opioid-dependent participants; assay: QT interval prolongation in opioid-dependent patients; settings: 60, 120, 180 mg, first 24 hours post administration; correlated with serum concentration
# Description: Patients' QT intervals were evaluated at regular time points throughout the study.
# [5] = tested on: healthy, drug-free male volunteers; assay: Safety and tolerability of noribogaine in healthy humans (adverse events, vital signs, ECG)
# Description: (§4) Pulse oximetry and capnography data were collected continuously using a GE Carescape B650 monitoring system from 2 hours prior to dosing and until six hours after dosing, and thereafter at 12, 24, 48 and 72 hours post-dosing. […] Pupillary miosis was assessed by pupillometry.
# as §3
# [6] = Plasma noribogaine pharmacokinetics, ascending single oral dose, healthy volunteers; settings: for CL/F / AUC(0-inf) / Cmax / Tmax / Vd/F / AUC(0-t) / half-life: plasma; for AUC(0-inf) / Cmax / Tmax / Vd/F / AUC(0-t) / half-life: human; for AUC(0-t): read-out: AUC0-216
# [7] = tested on: healthy, drug-free male volunteers; assay: Pupillary miosis assessed by pupillometry
# Description: as §4
# [8] = tested on: opioid-dependent participants; assay: Opiate withdrawal scales COWS, SOWS, OOWS
# Description: Patients were evaluated based on the Clinical Opiate Withdrawal Scale (COWS), Subjective Opiate Withdrawal Scale (SOWS), and Objective Opiate Withdrawal Scale (OOWS) scoring systems over the period of time between administration of noribogaine (or placebo) until resumption of OST. These scales are outlined in Guidelines for the Psychosocially Assisted Pharmacological Treatment of Opioid Dependence, World Health Organization, Geneva (2009), Annex 10, which is incorporated herein by reference in its entirety. The scales measure the intensity of withdrawal symptoms, based on clinical, subjective, and objective indicia.
# [9] = after adjusting for baseline differences, p>0.9
# [10] = healthy male volunteers, single oral 3 mg noribogaine, mean (n = 6)
# [11] = healthy male volunteers, single oral 10 mg noribogaine, mean (n = 6)
# [12] = healthy male volunteers, single oral 30 mg noribogaine, mean (n = 6)
# [13] = healthy male volunteers, single oral 60 mg noribogaine, mean (n = 6)
# [14] = healthy volunteers, 3-60 mg single oral doses
structure (smiles),measurement,setting,value
CC[C@H]1CC2C[C@H]3c4[nH]c5ccc(O)cc5c4CCN(C2)C13 [Noribogaine],average time to resumption of opioids,"[1]; single 120 mg dose, given 2 hours after last morphine dose",greater than 20 hours
same,Time to resumption of OST compared with untreated patients and 60 mg group,[1]; single 180 mg dose,"still longer than untreated patients (7 hours, not shown) or those administered 60 mg noribogaine"
same,"VAS pain scores, each dose group compared with placebo by ANOVA","[2]; after adjusting for baseline differences, p=0.17",no statistically significant differences
same,"duration of hand immersion, each dose group compared with placebo by ANOVA",[2]; [9],no statistically significant differences
same,analgesic effect in the cold pressor test,"[2]; healthy volunteers, 3-60 mg single oral doses, 1° C. water",no analgesic effect
same,dose dependence of maximum serum concentration (Cmax),"[3]; 60, 120, 180 mg cohorts",increased in a dose-dependent manner
same,Vd/F,[3]; Cohort 2 (120 mg),2110 ± 1640 L
same,Vd/F,[3]; Cohort 3 (180 mg),1030 ± 365 L
same,AUC(0-t),[3]; Cohort 1 (60 mg),2020 ± 614 ng·h/mL
same,Cmax,[3]; Cohort 1 (60 mg),81.6 ± 23.8 ng/mL
same,Tmax,[3]; Cohort 1 (60 mg),3.59 ± 0.92 h
same,AUC,[3]; Cohort 1 (60 mg),2060 ± 609 ng·h/mL
same,AUC(0-t),[3]; Cohort 2 (120 mg),3230 ± 1540 ng·h/mL
same,Cmax,[3]; Cohort 2 (120 mg),173 ± 30.7 ng/mL
same,Tmax,[3]; Cohort 2 (120 mg),2.99 ± 1.23 h
same,half-life,[3]; Cohort 2 (120 mg),30.4 ± 9.14 h
same,AUC,[3]; Cohort 2 (120 mg),3280 ± 1580 ng·h/mL
same,AUC(0-t),[3]; Cohort 3 (180 mg),6520 ± 2910 ng·h/mL
same,Cmax,[3]; Cohort 3 (180 mg),268 ± 46.9 ng/mL
same,Tmax,[3]; Cohort 3 (180 mg),4.41 ± 1.8 h
same,half-life,[3]; Cohort 3 (180 mg),23.9 ± 5.54 h
same,AUC,[3]; Cohort 3 (180 mg),6890 ± 3490 ng·h/mL
same,QT interval prolongation (ΔQTcl),[4],dose-dependent increase in QT interval prolongation
same,"Adverse events, Mild","[5]; healthy volunteers, 3 mg dose",Dizziness; also recorded: Epistaxis; also recorded: Headache; also recorded: Back pain
same,"Adverse events, Moderate","[5]; healthy volunteers, 3 mg dose",Headache
same,number of adverse events reported,"[5]; healthy volunteers, 3 mg dose group",five adverse events were reported by two subjects
same,"Adverse events, Mild","[5]; healthy volunteers, 10 mg dose",Headache
same,number of adverse events reported,"[5]; healthy volunteers, 10 mg dose group",one adverse event was reported by single subjects
same,"Adverse events, Mild","[5]; healthy volunteers, 30 mg dose",Headache
same,number of adverse events reported,"[5]; healthy volunteers, 30 mg dose group",one adverse event was reported by single subjects
same,"changes in oximetry, capnography, respiratory rate","[5]; healthy volunteers, 3-60 mg","no changes in oximetry or capnography, or changes in respiratory rate"
same,changes in vital signs or safety laboratory tests,"[5]; healthy volunteers, 3-60 mg",no changes in vital signs or safety laboratory tests of note
same,QTcF values,"[5]; healthy volunteers, 3-60 mg, at any time",≤ 500 ms
same,intensity of adverse events,"[5]; healthy volunteers, all groups, all resolved prior to study completion",mild-moderate intensity
same,single increase in QTcF,"[5]; one subject dosed with 10 mg, 24 hours post-dosing",> 60 ms
same,CL/F,[6]; [10],41.4 L/h
same,CL/F,[6]; [11],42.3 L/h
same,CL/F,[6]; [12],46.9 L/h
same,CL/F,[6]; [13],34.0 L/h
same,Volume of distribution across dose groups,[6]; [14],1417 to 3086 L
same,dose dependence of Cmax and AUC,[6]; [14],increased linearly with dose
same,time of peak concentrations after oral dosing,[6]; [14],2 to 3 h
same,AUC(0-inf),[6]; [10],74.2 ng·h/mL
same,Cmax,[6]; [10],5.2 ng/mL
same,Tmax,[6]; [10],1.9 h
same,Vd/F,[6]; [10],2490 L
same,AUC(0-t),[6]; [10],72.2 ng·h/mL
same,half-life,"[6]; healthy male volunteers, single oral 3 mg noribogaine, mean (n = 6), read-out: t1/2 (converted)",40.9 h
same,AUC(0-inf),[6]; [11],254 ng·h/mL
same,Cmax,[6]; [11],14.5 ng/mL
same,Tmax,[6]; [11],2.9 h
same,Vd/F,[6]; [11],3090 L
same,AUC(0-t),[6]; [11],251 ng·h/mL
same,half-life,"[6]; healthy male volunteers, single oral 10 mg noribogaine, mean (n = 6), read-out: t1/2 (converted)",49.2 h
same,AUC(0-inf),[6]; [12],700 ng·h/mL
same,Cmax,[6]; [12],55.9 ng/mL
same,Tmax,[6]; [12],1.8 h
same,Vd/F,[6]; [12],1850 L
same,AUC(0-t),[6]; [12],678 ng·h/mL
same,half-life,"[6]; healthy male volunteers, single oral 30 mg noribogaine, mean (n = 6), read-out: t1/2 (converted)",27.6 h
same,AUC(0-inf),[6]; [13],1960 ng·h/mL
same,Cmax,[6]; [13],116 ng/mL
same,Tmax,[6]; [13],2.4 h
same,Vd/F,[6]; [13],1420 L
same,AUC(0-t),[6]; [13],1940 ng·h/mL
same,half-life,"[6]; healthy male volunteers, single oral 60 mg noribogaine, mean (n = 6), read-out: t1/2 (converted)",29.1 h
same,half-life,"[6]; male, healthy volunteers, 3-60 mg single oral doses, read-out: Mean half-life estimates across dose groups",28 to 50 h
same,"pupil diameter, each dose group compared with placebo by ANOVA",[7]; [9],no statistically significant differences
same,pupillary constriction,[7]; [14],no evidence of pupillary constriction
same,"withdrawal symptoms (COWS, OOWS, SOWS), first six hours following dosing","[8]; single 120 mg dose, compared with the other patients",generally experienced fewer withdrawal symptoms than the other patients
same,"withdrawal symptoms (COWS, OOWS, SOWS), noribogaine compared with placebo","[8]; single 60, 120 or 180 mg dose, first six hours following dosing",Patients administered placebo generally experienced more withdrawal symptoms than patients who were administered noribogaine
